Experimental data reported in US7261876B2, “Multivalent constructs for therapeutic and diagnostic applications” (Bracco International BV, priority 2002, dated 2007).
“Also recorded” adds a separate entry of the source. Values belong to the compound of their own block, whether it stands above or below them. Positions of bridges follow the written chain, without caps; N, C: chain ends. Non-standard residues stand in square brackets, D forms with d. Residues, ends and D or L forms follow the SMILES beside them. Lys(ivDde) = CC(C)CC(NCCCC[C@H](N)C(=O)O)=C1C(=O)CC(C)(C)CC1=O

Assays:
KDR = target: T1, KDR (Homo sapiens, UniProt P35968); assay: VEGF-induced KDR receptor activation (phosphorylation) assay in HUVECs; format: cell-based; details: for inhibition of VEGF-induced activation of KDR: concentration not given
T1 construct: host or cells: HUVEC
From the text: Human umbilical vein endothelial cells (HUVECs) (Biowhittaker Cat No. CC-2519) were obtained frozen on dry ice and stored in liquid nitrogen until thawing. These cells were thawed, passaged, and maintained as described by the manufacturer in EGM-MV medium (Biowhittaker Cat No. CC-3125). Cells seeded into 100 mm dishes were allowed to become confluent, then cultured overnight in basal EBM medium lacking serum (Biowhittaker Cat No. CC-3121). The next morning, the medium in the dishes was replaced with 10 mL fresh EBM medium at 37° C. containing either no additive (negative control), 5 ng/mL VEGF (Calbiochem Cat No. 676472 or Peprotech Cat No. 100-20) (positive control), or 5 ng/mL VEGF plus the indicated concentration of the KDR-binding peptide (prepared as described above). In some cases, a neutralizing anti-KDR antibody (Cat No. AF357, R&D Systems) was used as a positive control inhibitor of activation. In such cases, the antibody was pre-incubated with the test cells for 30 min at 37° C. prior to the addition of fresh medium containing both VEGF and the antibody. After incubating the dishes 5 min in a 37° C. tissue culture incubator they were washed three times with ice-cold Dulbecco's phosphate buffered saline (D-PBS) containing calcium and magnesium and placed on ice without removing the last 10 mL of D-PBS. The first dish of a set was drained and 0.5 mL of Triton lysis buffer was added (20 mM Tris base pH 8.0, 137 mM NaCl, 10% glycerol, 1% Triton X-100, 2 mM EDTA (ethylenediaminetetraacetic acid), 1 mM PMSF (phenylmethylsulfonylfluoride), 1 mM sodium orthovanadate, 100 mM NaF, 50 mM sodium pyrophosphate, 10 μg/mL leupeptin, 10 μg/mL aprotinin). The cells were quickly scraped into the lysis buffer using a cell scraper (Falcon, Cat No. 353087), dispersed by pipeting up and down briefly, and the resulting lysate was transferred to the second drained dish of the pair. Another 0.5 mL of lysis buffer was used to rinse out the first dish then transferred to the second dish, which was then also scraped and dispersed. The pooled lysate from the two dishes was transferred to a 1.5 mL Eppindorf tube. The above procedure was repeated for each of the controls and test samples (KDR-binding peptides), one at a time. The lysates were stored on ice until all the samples had been processed. At this point samples were either stored at −70° C. or processed to the end of the assay without interruption.
The lysates, either freshly prepared or frozen and thawed, were precleared by adding 20 μL of protein A-sepharose beads (Sigma 3391, preswollen in D-PBS), washed three times with a large excess of D-PBS, reconstituted with 6 mL D-PBS to generate a 50% slurry) and rocked at 4° C. for 30 min. The beads were pelleted by centrifugation for 2 min in a Picofuge (Stratgene, Cat No. 400550) at 2000×g and the supernatants transferred to new 1.5 mL tubes. 20 μg of anti-Flk-1 antibody (Santa Cruz Biotechnology, Cat No. sc-504) was added to each tube, and the tubes were incubated overnight (16–18 h) at 4° C. on a rotator to immunoprecipitate KDR. The next day 40 μL of protein A-sepharose beads were added to the tubes, which were then incubated at 4° C. for 1 h on a rotator. The beads in each tube were subsequently washed three times by centrifuging for 2 min in a Picofuge, discarding the supernatant, and dispersing the beads in 1 mL freshly added TBST buffer (20 mM Tris base pH 7.5, 137 mM NaCl, and 0.1% Tween 20). After centrifuging and removing the liquid from the last wash, 40 μL of Laemmli SDS-PAGE sample buffer (Bio-Rad, Cat No. 161-0737) was added to each tube and the tubes were capped and boiled for 5 min. After cooling, the beads in each tube were pelleted by centrifuging and the supernatants containing the immunoprecipitated KDR were transferred to new tubes and used immediately or frozen and stored at −70° C. for later analysis.
Detection of phosphorylated KDR as well as total KDR in the immunoprecipitates was carried out by immunoblot analysis. […]

Soluble KDR receptor = target: T2, Soluble KDR receptor (Homo sapiens, UniProt P35968); assay: Surface plasmon resonance (Biacore 3000) of P9/P10 heterodimers; format: binding
T2 construct: Soluble KDR receptor was cross-linked to the dextran surface of a CM5 sensor chip

[1] = target: T3, KDR expressed by transfected 293H cells (Homo sapiens, UniProt P35968); assay: Competition with 125I-labeled VEGF for binding to KDR-transfected 293H cells
T3 construct: Both PCR products were digested with Not1 and ligated together to create the full-length receptor; V5-His (encoded by the vector); expressed in transfected cells; host or cells: 293H cells (Invitrogen cat. # 11631), transient lipofectamine 2000 transfection
T3 sequence (P35968 20-1356): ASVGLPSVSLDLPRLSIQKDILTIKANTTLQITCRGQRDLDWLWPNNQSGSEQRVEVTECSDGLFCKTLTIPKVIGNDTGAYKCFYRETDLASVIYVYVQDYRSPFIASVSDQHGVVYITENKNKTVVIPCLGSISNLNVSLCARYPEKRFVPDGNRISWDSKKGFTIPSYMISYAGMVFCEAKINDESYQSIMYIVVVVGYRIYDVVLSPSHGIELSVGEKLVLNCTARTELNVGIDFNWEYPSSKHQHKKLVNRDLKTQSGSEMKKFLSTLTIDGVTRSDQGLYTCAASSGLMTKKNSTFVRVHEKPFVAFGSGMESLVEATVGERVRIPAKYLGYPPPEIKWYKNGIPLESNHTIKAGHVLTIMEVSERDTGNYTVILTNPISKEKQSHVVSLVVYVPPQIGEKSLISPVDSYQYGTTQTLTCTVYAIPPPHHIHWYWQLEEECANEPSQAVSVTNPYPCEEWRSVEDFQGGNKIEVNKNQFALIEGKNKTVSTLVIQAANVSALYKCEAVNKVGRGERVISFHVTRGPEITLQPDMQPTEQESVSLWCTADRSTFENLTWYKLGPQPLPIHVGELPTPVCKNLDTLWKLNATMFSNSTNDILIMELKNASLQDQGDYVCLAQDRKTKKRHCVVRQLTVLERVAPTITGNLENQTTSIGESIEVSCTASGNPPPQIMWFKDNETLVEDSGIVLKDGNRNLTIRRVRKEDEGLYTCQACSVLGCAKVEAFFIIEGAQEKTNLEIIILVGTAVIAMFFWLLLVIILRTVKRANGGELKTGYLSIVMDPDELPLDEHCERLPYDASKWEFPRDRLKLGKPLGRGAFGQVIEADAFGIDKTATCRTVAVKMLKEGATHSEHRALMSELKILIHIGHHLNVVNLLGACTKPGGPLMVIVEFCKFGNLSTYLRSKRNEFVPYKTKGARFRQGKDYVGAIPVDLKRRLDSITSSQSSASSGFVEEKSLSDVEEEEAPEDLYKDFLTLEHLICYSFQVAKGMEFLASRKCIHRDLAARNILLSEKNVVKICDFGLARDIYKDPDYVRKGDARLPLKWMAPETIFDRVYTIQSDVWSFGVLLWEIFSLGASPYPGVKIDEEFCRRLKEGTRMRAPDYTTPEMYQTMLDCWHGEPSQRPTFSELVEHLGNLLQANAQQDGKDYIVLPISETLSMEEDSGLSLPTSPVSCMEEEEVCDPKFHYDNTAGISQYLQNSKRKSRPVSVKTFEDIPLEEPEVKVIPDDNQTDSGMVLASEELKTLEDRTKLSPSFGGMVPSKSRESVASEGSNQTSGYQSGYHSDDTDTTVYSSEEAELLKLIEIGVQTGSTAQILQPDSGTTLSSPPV
Protocol: Once prepared, the solutions were kept on ice until ready to use.
Cells were used 24 h after transfection, and to prepare the cells for the assay, they were washed 3 times with room temperature M199 medium and placed in the refrigerator. […] After incubating at 4° C. for 2 h, the plates were washed 5 times with cold binding buffer, gently blotted dry and checked under a microscope for cell loss. 100 μL of solubilizing solution (2% Triton X-100, 10% Glycerol, 0.1% BSA) was added to each well and the plates were incubated at room temperature for 30 minutes. The solubilizing solution in each well was mixed by pipeting up and down, and transferred to 1.2 mL tubes. Each well was washed twice with 100 μL of solubilizing solution and the washes were added to the corresponding 1.2 mL tube.
After washing the cells, the bound radioactivity was quantitated on a gamma counter.

T1 sequence (P35968 20-1356): as above
T2 sequence (P35968 20-764 limits assumed): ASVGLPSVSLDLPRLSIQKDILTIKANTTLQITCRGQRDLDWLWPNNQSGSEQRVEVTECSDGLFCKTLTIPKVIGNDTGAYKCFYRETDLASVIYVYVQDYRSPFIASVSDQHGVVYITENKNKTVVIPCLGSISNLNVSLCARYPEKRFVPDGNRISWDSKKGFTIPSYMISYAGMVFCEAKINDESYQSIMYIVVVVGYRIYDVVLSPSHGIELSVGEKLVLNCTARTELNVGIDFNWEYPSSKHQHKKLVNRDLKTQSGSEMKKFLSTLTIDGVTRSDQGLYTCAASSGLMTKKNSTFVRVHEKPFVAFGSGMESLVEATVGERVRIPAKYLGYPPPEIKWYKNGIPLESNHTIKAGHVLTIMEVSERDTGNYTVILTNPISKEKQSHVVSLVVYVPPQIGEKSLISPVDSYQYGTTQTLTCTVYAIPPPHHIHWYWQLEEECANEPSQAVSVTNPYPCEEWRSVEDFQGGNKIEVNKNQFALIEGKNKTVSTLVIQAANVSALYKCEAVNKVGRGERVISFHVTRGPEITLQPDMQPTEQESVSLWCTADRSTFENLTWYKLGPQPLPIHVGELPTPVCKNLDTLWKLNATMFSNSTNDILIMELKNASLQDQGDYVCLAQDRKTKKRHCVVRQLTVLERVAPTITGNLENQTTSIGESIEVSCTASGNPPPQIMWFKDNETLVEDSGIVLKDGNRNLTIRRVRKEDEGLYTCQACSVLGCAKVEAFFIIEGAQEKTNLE

Compound: CC(=O)N[C@@H](C)C(=O)N[C@@H](CCC(N)=O)C(=O)N[C@@H](CCCNC(=N)N)C(=O)NCC(=O)N[C@@H](CC(=O)O)C(=O)N[C@@H](Cc1ccc(O)cc1)C(=O)N[C@@H](CCC(N)=O)C(=O)N[C@@H](CCC(=O)O)C(=O)N[C@@H](CCC(N)=O)C(=O)N[C@@H](Cc1ccc(O)cc1)C(=O)N[C@@H](Cc1c[nH]c2ccccc12)C(=O)N[C@@H](Cc1c[nH]cn1)C(=O)N[C@@H](CCC(N)=O)C(=O)N[C@@H](CCC(N)=O)C(=O)N[C@@H](CC(C)C)C(=O)N[C@H](C(=O)N[C@@H](CCC(=O)O)C(=O)N[C@@H](CCC(N)=O)C(=O)N[C@@H](CC(C)C)C(=O)N[C@@H](CCCCNC(CC(C)C)=C1C(=O)CC(C)(C)CC1=O)C(=O)N[C@@H](CC(C)C)C(=O)N[C@@H](CC(C)C)C(=O)NCC(=O)NCC(=O)NCC(=O)N[C@@H](CCCCN)C(N)=O)C(C)C [P19-E] (Ac-AQRGDYQEQYWHQQLVEQL[Lys(ivDde)]LLGGGK-NH2)
inhibition of KDR activation (KDR; 10 μM): did not produce significant inhibition of KDR activation

Compound: CSCC[C@@H]1NC(=O)[C@H](CC(N)=O)NC(=O)[C@H](CO)NC(=O)[C@H](Cc2c[nH]c3ccccc23)NC(=O)CNC(=O)[C@@H](NC(=O)[C@H](CCC(=O)O)NC(=O)[C@H](Cc2c[nH]c3ccccc23)NC(=O)[C@H](CC(N)=O)NC(=O)[C@H](CC(=O)O)NC(=O)CNC(C)=O)CSSC[C@@H](C(=O)N[C@@H](C)C(=O)N[C@@H](CCCNC(=N)N)C(=O)N2CCC[C@H]2C(=O)N[C@@H](CC(=O)O)C(=O)N2CCC[C@H]2C(=O)NCC(=O)NCC(=O)NCC(=O)N[C@@H](CCCCN)C(N)=O)NC(=O)[C@H](Cc2ccccc2)NC(=O)[C@H](CCC(=O)O)NC(=O)[C@H](CCCCNC(CC(C)C)=C2C(=O)CC(C)(C)CC2=O)NC(=O)[C@H](CCC(N)=O)NC(=O)[C@H](Cc2ccccc2)NC1=O [P20-E] (Ac-GDNWECGWSNMFQ[Lys(ivDde)]EFCARPDPGGGK-NH2; disulfide 6-17)
inhibition of KDR activation (KDR; 10 μM): did not produce significant inhibition of KDR activation

Compound: CSCC[C@H](NC(=O)[C@H](Cc1ccc(O)cc1)NC(=O)[C@H](Cc1c[nH]c2ccccc12)NC(=O)[C@@H]1CSSC[C@H](NC(=O)[C@@H]2CCCN2C(=O)CNC(=O)[C@@H]2CCCN2C(=O)CNC(=O)[C@H](C)NC(C)=O)C(=O)N[C@@H](CCCCNC(CC(C)C)=C2C(=O)CC(C)(C)CC2=O)C(=O)NCC(=O)N[C@@H](Cc2ccc(O)cc2)C(=O)N[C@@H](CCSC)C(=O)N2CCC[C@H]2C(=O)N[C@@H](Cc2c[nH]cn2)C(=O)N[C@@H](CCC(N)=O)C(=O)N1)C(=O)NCC(=O)N[C@H](C(=O)NCC(=O)NCC(=O)NCC(=O)N[C@@H](CCCCN)C(N)=O)[C@@H](C)O [P21-E] (Ac-AGPGPC[Lys(ivDde)]GYMPHQCWYMGTGGGK-NH2; disulfide 6-14)
inhibition of KDR activation (KDR; 10 μM): did not produce significant inhibition of KDR activation

increase in affinity over the individual monomer (Soluble KDR receptor): greater than 60 fold
kd,1 (Soluble KDR receptor): 0.00128 s⁻¹
kon (Soluble KDR receptor; pH 7.65, read-out: ka,1): 115000 M⁻¹ s⁻¹
Compound: CC[C@H](C)[C@H](NC(=O)[C@H](Cc1c[nH]c2ccccc12)NC(=O)[C@H](Cc1ccc(O)cc1)NC(=O)[C@H](CC(=O)O)NC(=O)[C@H](CC(=O)O)NC(=O)CNC(=O)CNC(=O)[C@H](Cc1ccccc1)NC(=O)[C@H](CCCNC(=N)N)NC(=O)[C@@H]1CCCN1C(=O)[C@H](Cc1ccccc1)NC(=O)[C@H](C)NC(=O)[C@H](CCC(N)=O)NC(=O)[C@H](C)NC(C)=O)C(=O)N[C@@H](CCC(N)=O)C(=O)N[C@@H](CCC(N)=O)C(=O)N[C@@H](Cc1ccc(O)cc1)C(=O)N[C@@H](CC(C)C)C(=O)N[C@@H](CCCNC(=N)N)C(=O)N[C@@H](Cc1ccc(O)cc1)C(=O)N[C@H](C(=O)N[C@@H](CC(=O)O)C(=O)NCC(=O)NCC(=O)N[C@@H](CCCCNC(=O)CCOCCOCCOCCOCCNC(=O)CON=C(C)CCC(=O)NCCOCCOCCOCCOCCC(=O)NCCCC[C@H](NC(=O)CNC(=O)CNC(=O)[C@H](CC(=O)O)NC(=O)CNC(=O)[C@H](CC(=O)O)NC(=O)[C@H](CCC(=O)O)NC(=O)[C@H](CCC(=O)O)NC(=O)[C@H](Cc1c[nH]cn1)NC(=O)[C@H](Cc1ccc(O)cc1)NC(=O)[C@H](CC(C)C)NC(=O)[C@@H](NC(=O)[C@@H](NC(=O)[C@@H](NC(=O)[C@H](CCC(=O)O)NC(=O)[C@H](Cc1c[nH]c2ccccc12)NC(=O)[C@H](Cc1ccc(O)cc1)NC(=O)[C@H](C)NC(=O)[C@H](Cc1ccc(O)cc1)NC(=O)CNC(=O)[C@H](CCC(=O)O)NC(=O)[C@@H]1CCCN1C(=O)[C@H](CCC(=O)O)NC(=O)[C@H](CCC(N)=O)NC(=O)[C@H](C)NC(C)=O)C(C)C)[C@@H](C)CC)[C@@H](C)O)C(N)=O)C(N)=O)[C@@H](C)O [Tail-to-tail dimer]

Compound: AGDSWCSTEYTYCEMIGT [P4]
competition with 125I-VEGF for binding to KDR-transfected cells [1]: did not compete significantly

Compound: AQAFPRFGGDDYWIQQYLRYTDGG [P10]
kd,1 (Soluble KDR receptor): 0.45 s⁻¹
inhibition of KDR activation (KDR; 10 μM): clearly able to partially block the VEGF-induced activation of KDR

Compound: AQEPEGYAYWEVITLYHEEDGDGG [P9]
kd,1 (Soluble KDR receptor): 0.00332 s⁻¹

Compound: Ac-AGPKWC*EEDWYYC*MITGT-GGGK-NH2 [P5-D]
inhibition of VEGF-induced activation of KDR (KDR): inhibit activation of KDR

Compound: Ac-AGPTWC*EDDWYYC*WLFGT-GGGK-(Biotin-JJ-)-NH2 [P12-XB]
percentage inhibition of 125I-labeled VEGF binding ([1]; 0.3 μM peptide): 80.96±3.8%
percentage inhibition of 125I-labeled VEGF binding ([1]; 30 μM peptide): 104.48±2.07%

Compound: Ac-AQAFPRFGGDDYWIQQYLRYTDGGK-NH2 [P10-D]
inhibition of VEGF-induced activation of KDR (KDR): inhibit activation of KDR; also recorded: able to largely inhibit the VEGF-induced phosphorylation of KDR

inhibition at 10 µM (KDR; HUVEC, 10 μM, read-out: inhibition of VEGF-induced KDR phosphorylation): ≥ 50%
inhibition of VEGF-induced activation of KDR (KDR): inhibit activation of KDR
Compound: Ac-AQGDYVYWEIIELTGATDHTPPGGGK-NH2 [P11-D]

Compound: Ac-GDSRVC*WEDSWGGEVC*FRYDPGGGK-NH2 [P6-D]
inhibition of VEGF-induced activation of KDR (KDR): inhibit activation of KDR
